Results as given in US20260374739A1, “SMALL MOLECULAR WEIGHT CHEMICAL COMPOUND TO ANTAGONIZE EPH-EPHRIN TETRAMERIZATION AND INHIBIT BIDIRECTIONAL SIGNALING” (THE BOARD OF REGENTS OF THE UNIVERSITY OF TEXAS SYSTEM, priority 2022, published 2026).

These compounds were tested against T1, EphrinB2-EphB2 (Homo sapiens, UniProt P29323) (assay: Octet 80 sec association/500 sec dissociation, immobilized human EphrinB2-Fc binding to soluble human EphB2-His). Settings: at 3.2 μM and 80 seconds; immobilized human EphrinB2; 25 nM soluble human EphB2.
T1 construct: soluble human EphB1-His, EphB2-His, and EphB4-His ectodomains; commercially available human EphrinB1-Fc (EB1), EphrinB2-Fc (EB2), and EphrinB3-Fc (EB3) ectodomain proteins; purchased
T1 sequence (P29323 19-543 limits assumed): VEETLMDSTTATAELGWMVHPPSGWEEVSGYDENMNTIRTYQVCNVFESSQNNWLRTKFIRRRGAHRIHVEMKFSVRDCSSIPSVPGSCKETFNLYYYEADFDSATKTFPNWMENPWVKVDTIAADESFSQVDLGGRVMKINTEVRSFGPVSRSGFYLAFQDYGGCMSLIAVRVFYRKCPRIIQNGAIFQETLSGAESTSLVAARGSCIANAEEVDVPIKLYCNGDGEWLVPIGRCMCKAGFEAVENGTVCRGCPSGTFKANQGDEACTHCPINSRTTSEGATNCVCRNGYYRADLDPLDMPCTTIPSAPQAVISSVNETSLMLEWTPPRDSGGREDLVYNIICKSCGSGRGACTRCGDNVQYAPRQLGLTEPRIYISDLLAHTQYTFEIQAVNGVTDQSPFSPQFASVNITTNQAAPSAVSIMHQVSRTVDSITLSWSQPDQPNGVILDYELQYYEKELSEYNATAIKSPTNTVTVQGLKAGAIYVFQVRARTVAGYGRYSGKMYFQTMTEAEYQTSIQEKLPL
How it was run: (§1)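 EphrinB2-Fc captured on AHC biosensors, then soluble His-tagged EphB ectodomain (25 nM for % inhibition runs) associated 80 s and dissociated 500 s in PBS, 0.05% Tween-20, 1% DMSO ± compound. Compounds tested at 0.1–3.2 μM with a 10 μM max standard; IC50 from AUC of full traces or at 75 s and 135 s.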

Question: How did the “EphB2 Inhibition Percent, Inhibition of Association ONLY” value turn out when `O=[N+]([O-])c1ccc(N2CCN(Cc3ccc(O)c4ncccc34)CC2)cc1` [Compound 38, 8-hydroxy-5-((4-(4-nitrophenyl)piperazin-1-ium-1-yl)methyl)quinolin-1-ium chloride] was run?
Answer: 54.3%

Question: How did the “EphB2 Inhibition Percent, Inhibition of Association ONLY” value turn out when `O=S1(=O)CCN(Cc2cc(I)c(O)c3ncccc23)CC1` [Compound 19, 4-((8-hydroxy-7-iodoquinolin-1-ium-5-yl)methyl)thiomorpholin-4-ium 1,1-dioxide chloride] was run?
Answer: 53.7%

Same assay, conditions: at 3.2 μM and 580 seconds; immobilized human EphrinB2; 25 nM soluble human EphB2

Question: With `O=[N+]([O-])c1ccc(N2CCN(Cc3ccc(O)c4ncccc34)CC2)cc1` [Compound 38, 8-hydroxy-5-((4-(4-nitrophenyl)piperazin-1-ium-1-yl)methyl)quinolin-1-ium chloride] as the compound, how does the “EphB2 Inhibition Percent, Inhibition of Association-Dissociation” value read?
Answer: 72.1%

Question: `O=S1(=O)CCN(Cc2cc(I)c(O)c3ncccc23)CC1` [Compound 19, 4-((8-hydroxy-7-iodoquinolin-1-ium-5-yl)methyl)thiomorpholin-4-ium 1,1-dioxide chloride] was tested. Which “EphB2 Inhibition Percent, Inhibition of Association-Dissociation” value did it give?
Answer: 71.4%

These compounds were tested against T1, EphrinB2-EphB2 (assay: Octet tetramerization inhibition, immobilized human EphrinB2 binding to 50 nM soluble human EphB2). Settings: Absolute AUC/IC50, Table A, EphrinB2-EphB2.

Question: Which IC50 does the source give for `O=[N+]([O-])c1ccc(N2CCN(Cc3ccc(O)c4ncccc34)CC2)cc1` [Compound 38, 8-hydroxy-5-((4-(4-nitrophenyl)piperazin-1-ium-1-yl)methyl)quinolin-1-ium chloride] here?
Answer: 2.18 µM

Question: For `O=S1(=O)CCN(Cc2cc(I)c(O)c3ncccc23)CC1` [Compound 19, 4-((8-hydroxy-7-iodoquinolin-1-ium-5-yl)methyl)thiomorpholin-4-ium 1,1-dioxide chloride], which IC50 is on record?
Answer: > 1.6 µM

Same assay, conditions: Absolute Association IC50 (300 sec), Table A, EphrinB2-EphB2

Question: `O=[N+]([O-])c1ccc(N2CCN(Cc3ccc(O)c4ncccc34)CC2)cc1` [Compound 38, 8-hydroxy-5-((4-(4-nitrophenyl)piperazin-1-ium-1-yl)methyl)quinolin-1-ium chloride] was tested. Which IC50 did it give?
Answer: 2.29 µM

Question: Which IC50 does the source give for `O=S1(=O)CCN(Cc2cc(I)c(O)c3ncccc23)CC1` [Compound 19, 4-((8-hydroxy-7-iodoquinolin-1-ium-5-yl)methyl)thiomorpholin-4-ium 1,1-dioxide chloride] here?
Answer: 1.6 µM

Same assay, conditions: Absolute Dissociation IC50 (450 sec), Table A, EphrinB2-EphB2

Question: `O=[N+]([O-])c1ccc(N2CCN(Cc3ccc(O)c4ncccc34)CC2)cc1` [Compound 38, 8-hydroxy-5-((4-(4-nitrophenyl)piperazin-1-ium-1-yl)methyl)quinolin-1-ium chloride] was tested. Which IC50 did it give?
Answer: 1.86 µM

Question: Which IC50 does the source give for `O=S1(=O)CCN(Cc2cc(I)c(O)c3ncccc23)CC1` [Compound 19, 4-((8-hydroxy-7-iodoquinolin-1-ium-5-yl)methyl)thiomorpholin-4-ium 1,1-dioxide chloride] here?
Answer: 1.41 µM

Same assay, conditions: Relative AUC/IC50, Table A, EphrinB2-EphB2; compound 7: association only

Question: Which IC50 does the source give for `O=[N+]([O-])c1ccc(N2CCN(Cc3ccc(O)c4ncccc34)CC2)cc1` [Compound 38, 8-hydroxy-5-((4-(4-nitrophenyl)piperazin-1-ium-1-yl)methyl)quinolin-1-ium chloride] here?
Answer: 1.2 µM

Question: `O=S1(=O)CCN(Cc2cc(I)c(O)c3ncccc23)CC1` [Compound 19, 4-((8-hydroxy-7-iodoquinolin-1-ium-5-yl)methyl)thiomorpholin-4-ium 1,1-dioxide chloride] was tested. Which IC50 did it give?
Answer: 0.69 µM

Same assay, conditions: Relative Association IC50 (300 sec), Table A, EphrinB2-EphB2

Question: For `O=[N+]([O-])c1ccc(N2CCN(Cc3ccc(O)c4ncccc34)CC2)cc1` [Compound 38, 8-hydroxy-5-((4-(4-nitrophenyl)piperazin-1-ium-1-yl)methyl)quinolin-1-ium chloride], which IC50 is on record?
Answer: 1.23 µM

Question: For `O=S1(=O)CCN(Cc2cc(I)c(O)c3ncccc23)CC1` [Compound 19, 4-((8-hydroxy-7-iodoquinolin-1-ium-5-yl)methyl)thiomorpholin-4-ium 1,1-dioxide chloride], which IC50 is on record?
Answer: 0.83 µM

Same assay, conditions: Relative Dissociation IC50 (450 sec), Table A, EphrinB2-EphB2

Question: Which IC50 does the source give for `O=[N+]([O-])c1ccc(N2CCN(Cc3ccc(O)c4ncccc34)CC2)cc1` [Compound 38, 8-hydroxy-5-((4-(4-nitrophenyl)piperazin-1-ium-1-yl)methyl)quinolin-1-ium chloride] here?
Answer: 1.47 µM

Question: Which IC50 does the source give for `O=S1(=O)CCN(Cc2cc(I)c(O)c3ncccc23)CC1` [Compound 19, 4-((8-hydroxy-7-iodoquinolin-1-ium-5-yl)methyl)thiomorpholin-4-ium 1,1-dioxide chloride] here?
Answer: 0.81 µM

These compounds were tested against T2, EphrinB2-EphB4 (Homo sapiens, UniProt P54760) (assay: Octet 80 sec association/500 sec dissociation, immobilized human EphrinB2-Fc binding to soluble human EphB4-His). Settings: at 3.2 μM and 80 seconds; immobilized human EphrinB2; 25 nM soluble human EphB4.
T2 construct: soluble human EphB1-His, EphB2-His, and EphB4-His ectodomains; commercially available human EphrinB1-Fc (EB1), EphrinB2-Fc (EB2), and EphrinB3-Fc (EB3) ectodomain proteins; purchased
T2 sequence (P54760 16-539 limits assumed): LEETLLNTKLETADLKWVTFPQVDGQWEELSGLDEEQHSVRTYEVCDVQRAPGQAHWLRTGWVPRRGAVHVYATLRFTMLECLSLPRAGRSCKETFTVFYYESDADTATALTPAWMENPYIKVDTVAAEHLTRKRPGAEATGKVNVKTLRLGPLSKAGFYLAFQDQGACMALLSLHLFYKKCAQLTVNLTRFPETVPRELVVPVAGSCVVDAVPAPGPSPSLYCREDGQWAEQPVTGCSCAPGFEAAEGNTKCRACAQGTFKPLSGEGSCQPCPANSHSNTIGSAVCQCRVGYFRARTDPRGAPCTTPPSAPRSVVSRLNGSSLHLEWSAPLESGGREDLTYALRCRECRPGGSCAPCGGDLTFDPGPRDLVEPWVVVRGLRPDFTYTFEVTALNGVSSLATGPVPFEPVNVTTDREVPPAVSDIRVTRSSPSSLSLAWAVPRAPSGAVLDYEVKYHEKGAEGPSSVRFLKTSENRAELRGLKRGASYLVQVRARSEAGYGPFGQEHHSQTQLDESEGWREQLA
How it was run: as §1

Question: For `O=[N+]([O-])c1ccc(N2CCN(Cc3ccc(O)c4ncccc34)CC2)cc1` [Compound 38, 8-hydroxy-5-((4-(4-nitrophenyl)piperazin-1-ium-1-yl)methyl)quinolin-1-ium chloride], which “EphB4 Inhibition Percent, Inhibition of Association ONLY” value is on record?
Answer: 9.6%

Question: Which “EphB4 Inhibition Percent, Inhibition of Association ONLY” value does the source give for `O=S1(=O)CCN(Cc2cc(I)c(O)c3ncccc23)CC1` [Compound 19, 4-((8-hydroxy-7-iodoquinolin-1-ium-5-yl)methyl)thiomorpholin-4-ium 1,1-dioxide chloride] here?
Answer: 12.9%

Same assay, conditions: at 3.2 μM and 580 seconds; immobilized human EphrinB2; 25 nM soluble human EphB4

Question: Which “EphB4 Inhibition Percent, Inhibition of Association-Dissociation” value does the source give for `O=[N+]([O-])c1ccc(N2CCN(Cc3ccc(O)c4ncccc34)CC2)cc1` [Compound 38, 8-hydroxy-5-((4-(4-nitrophenyl)piperazin-1-ium-1-yl)methyl)quinolin-1-ium chloride] here?
Answer: 17.5%

Question: Which “EphB4 Inhibition Percent, Inhibition of Association-Dissociation” value does the source give for `O=S1(=O)CCN(Cc2cc(I)c(O)c3ncccc23)CC1` [Compound 19, 4-((8-hydroxy-7-iodoquinolin-1-ium-5-yl)methyl)thiomorpholin-4-ium 1,1-dioxide chloride] here?
Answer: 36.2%

Each compound was assayed against T3, EphrinB2-EphB1 (Homo sapiens, UniProt P54762) (assay: Octet 80 sec association/500 sec dissociation, immobilized human EphrinB2-Fc binding to soluble human EphB1-His). Settings: at 3.2 μM and 80 seconds; immobilized human EphrinB2; 25 nM soluble human EphB1.
T3 construct: soluble human EphB1-His, EphB2-His, and EphB4-His ectodomains; commercially available human EphrinB1-Fc (EB1), EphrinB2-Fc (EB2), and EphrinB3-Fc (EB3) ectodomain proteins; purchased
T3 sequence (P54762 18-540 limits assumed): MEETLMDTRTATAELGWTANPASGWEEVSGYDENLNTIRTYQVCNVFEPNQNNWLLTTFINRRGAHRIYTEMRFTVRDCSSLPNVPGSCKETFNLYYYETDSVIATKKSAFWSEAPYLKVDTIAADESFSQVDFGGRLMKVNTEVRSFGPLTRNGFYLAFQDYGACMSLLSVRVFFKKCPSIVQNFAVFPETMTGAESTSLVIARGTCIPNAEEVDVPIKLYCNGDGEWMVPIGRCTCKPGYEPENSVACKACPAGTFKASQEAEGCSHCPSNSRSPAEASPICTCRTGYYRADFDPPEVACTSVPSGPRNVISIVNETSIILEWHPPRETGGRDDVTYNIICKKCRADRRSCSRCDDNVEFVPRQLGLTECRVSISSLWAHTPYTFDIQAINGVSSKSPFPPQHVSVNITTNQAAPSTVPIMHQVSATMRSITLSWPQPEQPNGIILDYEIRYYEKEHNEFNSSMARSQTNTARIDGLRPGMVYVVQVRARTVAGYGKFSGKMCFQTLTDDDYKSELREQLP
How it was run: as §1

Question: Which “EphB1 Inhibition Percent, Inhibition of Association ONLY” value does the source give for `O=[N+]([O-])c1ccc(N2CCN(Cc3ccc(O)c4ncccc34)CC2)cc1` [Compound 38, 8-hydroxy-5-((4-(4-nitrophenyl)piperazin-1-ium-1-yl)methyl)quinolin-1-ium chloride] here?
Answer: 24.8%

Question: Which “EphB1 Inhibition Percent, Inhibition of Association ONLY” value does the source give for `O=S1(=O)CCN(Cc2cc(I)c(O)c3ncccc23)CC1` [Compound 19, 4-((8-hydroxy-7-iodoquinolin-1-ium-5-yl)methyl)thiomorpholin-4-ium 1,1-dioxide chloride] here?
Answer: 33.9%

Same assay, conditions: at 3.2 μM and 580 seconds; immobilized human EphrinB2; 25 nM soluble human EphB1

Question: How did the “EphB1 Inhibition Percent, Inhibition of Association-Dissociation” value turn out when `O=[N+]([O-])c1ccc(N2CCN(Cc3ccc(O)c4ncccc34)CC2)cc1` [Compound 38, 8-hydroxy-5-((4-(4-nitrophenyl)piperazin-1-ium-1-yl)methyl)quinolin-1-ium chloride] was run?
Answer: 43.2%

Question: How did the “EphB1 Inhibition Percent, Inhibition of Association-Dissociation” value turn out when `O=S1(=O)CCN(Cc2cc(I)c(O)c3ncccc23)CC1` [Compound 19, 4-((8-hydroxy-7-iodoquinolin-1-ium-5-yl)methyl)thiomorpholin-4-ium 1,1-dioxide chloride] was run?
Answer: 50.1%
